What follows are molecules tested against human GPR40 receptor (Homo sapiens, UniProt O14842) (assay: IP1 accumulation measurements using the IPOne assay system). Conditions: 1321N1 cells stably expressing human GPR40 receptor; stimulated 1 h at 37° C.
Format: cell-based
Description: IP1 accumulation measurements using the IPOne assay system—1321N1 cells stably expressing human GPR40 receptor (Euroscreen, Belgium) are seeded 24 h before the assay in white 384-well plates in culture medium containing 10% FCS, 1% Na-Pyruvate and 400 μg/mL G418. IP1 is assayed according to the manufacturer's description (Cisbio Bioassays, France). In brief, the assay is started by substitution of the culture medium by stimulation buffer (Hepes 10 mM, CaCl2) 1 mM, MgCl2 0.5 mM, KCl 4.2 mM, NaCl 146 mM, glucose 5.5 mM and LiCl 50 mM, pH 7.4). Cells are stimulated for 1 h at 37° C., 5% CO2 by addition of the compounds that are diluted in stimulation buffer containing LiCl. Assays are stopped by adding HTRF-conjugates (IP1-d2 and Anti-IP1 cryptate Tb) and lysis buffer, provided by the manufacturer. After an incubation time of 1 h at room temperature plates are measured using an EnVision™, Perkin Elmer. The obtained fluorescence ratios at 665/615 […] are then used to calculate the pEC50 values using Assay Explorer 3.3 Software (Accelrys, Inc.) by interpolation using an IP1 reference curve and subsequent sigmoidal curve fitting allowing for a variable hill slope.

Sequence of human GPR40 receptor (O14842 whole entry): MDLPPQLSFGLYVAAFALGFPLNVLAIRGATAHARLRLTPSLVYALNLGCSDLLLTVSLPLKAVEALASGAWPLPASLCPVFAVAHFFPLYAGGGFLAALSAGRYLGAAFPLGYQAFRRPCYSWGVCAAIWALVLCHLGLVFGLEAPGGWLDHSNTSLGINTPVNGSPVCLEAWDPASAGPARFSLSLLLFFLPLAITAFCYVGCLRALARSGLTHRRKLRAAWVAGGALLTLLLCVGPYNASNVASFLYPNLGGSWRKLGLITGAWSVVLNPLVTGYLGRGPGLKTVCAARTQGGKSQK

Row | Structure (SMILES) | EC50 [nM]
1 | O=C(O)[C@H]1C[C@@H]1c1cnc(OCc2cccc(-c3ccc(-c4cnco4)cc3)c2)cn1 [Example 5, (1 S,2S)-2-[5-(4′-Oxazol-5-yl-biphenyl-3-ylmethoxy)-pyrazin-2-yl]-cyclopropane-carboxylic acid] | 67
2 | Cc1cc(-c2ccc(=O)n(C)c2)cc(C)c1-c1cccc(COc2cnc([C@H]3C[C@@H]3C(=O)O)cn2)c1 [Example 9, (1 S,2S)-2-{5-[2′,6′-Dimethyl-4′-(1-methyl-6-oxo-1,6-dihydro-pyridin-3-yl)-biphenyl-3-ylmethoxy]-pyrazin-2-yl}-cyclopropanecarboxylic acid] | 9
3 | CCc1cccc(CC)c1-c1cccc(COc2cnc([C@H]3C[C@@H]3C(=O)O)cn2)c1 [Example 13, (1 S,2S)-2-[5-(2′,6′-Diethyl-biphenyl-3-ylmethoxy)-pyrazin-2-yl]-cyclopropane-carboxylic acid] | 20
4 | Cc1nnc(-c2ccc(-c3cc(COc4cnc([C@H]5C[C@@H]5C(=O)O)cn4)ccc3C(F)(F)F)cc2)o1 [Example 22, (1 S,2S)-2-{5-[4′-(5-Methyl-[1,3,4]oxadiazol-2-yl)-6-trifluoromethyl-biphenyl-3-ylmethoxy]-pyrazin-2-yl}-cyclopropanecarboxylic acid] | 4
5 | Cc1cc(-c2nnn(C)n2)cc(C)c1-c1cccc(COc2cnc([C@H]3C[C@@H]3C(=O)O)cn2)c1 [Example 2, (1 S,2S)-2-{5-[2′,6′-Dimethyl-4′-(2-methyl-2H-tetrazol-5-yl)-biphenyl-3-ylmethoxy]-pyrazin-2-yl}-cyclopropanecarboxylic acid] | 3
6 | O=C(O)[C@H]1C[C@@H]1c1cnc(OCc2cc(-c3c(Cl)cccc3Cl)ccc2F)cn1 [Example 15, (1 S,2S)-2-[5-(2′,6′-Dichloro-4-fluoro-biphenyl-3-ylmethoxy)-pyrazin-2-yl]-cyclopropanecarboxylic acid] | 8
7 | Cc1cc(OCC2CCCO2)cc(C)c1-c1ccc(F)c(COc2cnc([C@H]3C[C@@H]3C(=O)O)cn2)c1 (stereo partly drawn) [Example 14, (1 S,2S)-2-{5-[4-Fluoro-2′,6′-dimethyl-4′-(tetrahydro-furan-2-ylmethoxy)-biphenyl-3-ylmethoxy]-pyrazin-2-yl}-cyclopropanecarboxylic acid] | 6
8 | Cc1cc(-c2cnccn2)cc(C)c1-c1cccc(COc2cnc([C@H]3C[C@@H]3C(=O)O)cn2)c1 [Example 10, (1 S,2S)-2-[5-(2′,6′-Dimethyl-4′-pyrazin-2-yl-biphenyl-3-ylmethoxy)-pyrazin-2-yl]-cyclopropanecarboxylic acid] | 13
9 | Cc1cc(O[C@H]2CCOC2)cc(C)c1-c1cccc(COc2cnc([C@H]3C[C@@H]3C(=O)O)cn2)c1 [Example 6, (1 S,2S)-2-(5-{2′,6′-Dimethyl-4′-[(S)-(tetrahydro-furan-3-yl)oxy]-biphenyl-3-ylmethoxy}-pyrazin-2-yl)-cyclopropanecarboxylic acid] | 10
10 | Cc1cc(OCCCS(C)(=O)=O)cc(C)c1-c1ccc(F)c(COc2cnc([C@H]3C[C@@H]3C(=O)O)cn2)c1 [Example 18, (1 S,2S)-2-{5-[4-Fluoro-4′-(3-methanesulfonyl-propoxy)-2′,6′-dimethyl-biphenyl-3-ylmethoxy]-pyrazin-2-yl}-cyclopropanecarboxylic acid] | 7
11 | O=C(O)[C@H]1C[C@@H]1c1cnc(OCc2cccc(-c3ccccc3C(F)(F)F)c2)cn1 [Example 3, (1 S,2S)-2-[5-(2′-Trifluoromethyl-biphenyl-3-ylmethoxy)-pyrazin-2-yl]-cyclopropanecarboxylic acid] | 24
12 | CC(C)(O)CCOc1ccc(-c2cc(COc3cnc([C@H]4C[C@@H]4C(=O)O)cn3)ccc2C(F)(F)F)cc1 [Example 21, (1 S,2S)-2-{5-[4′-(3-Hydroxy-3-methyl-butoxy)-6-trifluoromethyl-biphenyl-3-ylmethoxy]-pyrazin-2-yl}-cyclopropanecarboxylic acid] | 3
13 | Cc1cc(OCC2CCOCC2)cc(C)c1-c1ccc(F)c(COc2cnc([C@H]3C[C@@H]3C(=O)O)cn2)c1 [Example 19, (1 S,2S)-2-{5-[4-Fluoro-2′,6′-dimethyl-4′-(tetrahydro-pyran-4-ylmethoxy)-biphenyl-3-ylmethoxy]-pyrazin-2-yl}-cyclopropanecarboxylic acid] | 6
14 | Cc1cc(OCCC(C)(C)O)cc(C)c1-c1cc(COc2cnc([C@H]3C[C@@H]3C(=O)O)cn2)c(F)cc1F [Example 1, (1 S,2S)-2-{5-[4,6-Difluoro-4′-(3-hydroxy-3-methyl-butoxy)-2′,6′-dimethyl-biphenyl-3-ylmethoxy]-pyrazin-2-yl}-cyclopropanecarboxylic acid] | 6
15 | COc1cc(C)c(-c2cccc(COc3cnc([C@H]4C[C@@H]4C(=O)O)cn3)c2)c(C)c1 [Example 4, (1 S,2S)-2-[5-(4′-Methoxy-2′,6′-dimethyl-biphenyl-3-ylmethoxy)-pyrazin-2-yl]-cyclopropanecarboxylic acid] | 12
16 | Cc1cc(-c2ccnn2C)cc(C)c1-c1cccc(COc2cnc([C@H]3C[C@@H]3C(=O)O)cn2)c1 [Example 11, (1 S,2S)-2-{5-[2′,6′-Dimethyl-4′-(2-methyl-2H-pyrazol-3-yl)-biphenyl-3-ylmethoxy]-pyrazin-2-yl}-cyclopropanecarboxylic acid] | 6
17 | Cc1cc(OCCC(C)(C)O)cc(C)c1-c1cccc(COc2cnc([C@H]3C[C@@H]3C(=O)O)cn2)c1 [Example 8, (1 S,2S)-2-{5-[4′-(3-Hydroxy-3-methyl-butoxy)-2′,6′-dimethyl-biphenyl-3-ylmethoxy]-pyrazin-2-yl}-cyclopropanecarboxylic acid] | 7
18 | Cc1cc(OC2CCOCC2)cc(C)c1-c1cccc(COc2cnc([C@H]3C[C@@H]3C(=O)O)cn2)c1 [Example 7, (1 S,2S)-2-{5-[2′,6′-Dimethyl-4′-(tetrahydro-pyran-4-yloxy)-biphenyl-3-ylmethoxy]-pyrazin-2-yl}-cyclopropanecarboxylic acid] | 8
19 | COc1cc(-c2cc(C)c(-c3ccc(F)c(COc4cnc([C@H]5C[C@@H]5C(=O)O)cn4)c3)c(C)c2)ccn1 [Example 17, (1 S,2S)-2-{5-[4-Fluoro-4′-(2-methoxy-pyridin-4-yl)-2′,6′-dimethyl-biphenyl-3-ylmethoxy]-pyrazin-2-yl}-cyclopropanecarboxylic acid] | 7
20 | Cc1cc(-c2nnn(CC(C)(C)O)n2)cc(C)c1-c1cccc(COc2cnc([C@H]3C[C@@H]3C(=O)O)cn2)c1 [Example 12, (1 S,2S)-2-(5-{4′-[2-(2-Hydroxy-2-methyl-propyl)-2H-tetrazol-5-yl]-2′,6′-dimethyl-biphenyl-3-ylmethoxy}-pyrazin-2-yl)-cyclopropanecarboxylic acid] | 8
21 | Cc1cnc(-c2cc(C)c(-c3ccc(F)c(COc4cnc([C@H]5C[C@@H]5C(=O)O)cn4)c3)c(C)c2)nc1 [Example 16, (1 S,2S)-2-{5-[4-Fluoro-2′,6′-dimethyl-4′-(5-methyl-pyrimidin-2-yl)-biphenyl-3-ylmethoxy]-pyrazin-2-yl}-cyclopropanecarboxylic acid] | 3
22 | CC(C)c1ccccc1-c1ccc(F)c(COc2cnc([C@H]3C[C@@H]3C(=O)O)cn2)c1 [Example 20, (1 S,2S)-2-[5-(4-Fluoro-2′-isopropyl-biphenyl-3-ylmethoxy)-pyrazin-2-yl]-cyclopropanecarboxylic acid] | 35
